Assay [1] concerns the target T1, WRN [UniPro: Q14191 (WRN_HUMAN), N500-C946] (Homo sapiens (Human), UniProt Q14191). Put plainly: WRN unwinding assay (FORKF DNA, fluorescence). Type of assay: biochemical. As to conditions: Table 14.
Assay [2] deals with T1, WRN [UniPro: Q14191 (WRN_HUMAN), N500-C946]. Put plainly: WRN ATPase assay (ADP-Glo). Type of assay: biochemical. Particulars: WRN enzymatic activity assay.

T1 sequence (Q14191 500-946): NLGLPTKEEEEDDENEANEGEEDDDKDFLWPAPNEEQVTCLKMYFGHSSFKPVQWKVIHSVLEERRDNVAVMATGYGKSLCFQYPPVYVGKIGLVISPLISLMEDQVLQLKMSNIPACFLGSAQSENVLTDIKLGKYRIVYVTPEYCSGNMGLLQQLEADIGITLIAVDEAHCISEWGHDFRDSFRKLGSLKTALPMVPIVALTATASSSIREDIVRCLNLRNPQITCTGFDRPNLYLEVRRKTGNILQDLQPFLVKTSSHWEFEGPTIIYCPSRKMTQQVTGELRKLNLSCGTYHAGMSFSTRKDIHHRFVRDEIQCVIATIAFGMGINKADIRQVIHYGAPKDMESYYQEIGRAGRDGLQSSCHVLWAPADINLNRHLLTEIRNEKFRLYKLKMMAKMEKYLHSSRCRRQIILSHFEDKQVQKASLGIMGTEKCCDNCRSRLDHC

In general, IC50 refers to the concentration that inhibits the measured activity by half. Read a low IC50 as higher potency. On to `CCc1c(N2CCN(C(=O)CNC(=O)c3ccns3)CC2)c(=O)n2nc(C3=CCOCC3)nc2n1CC(=O)Nc1ccc(C(F)(F)F)cc1Cl` [Example 369, N-(2-(4-(4-(2-((2-Chloro-4-(trifluoromethyl)phenyl)amino)-2-oxoethyl)-2-(3,6-dihydro-2H-pyran-4-yl)-5-ethyl-7-oxo-4,7-dihydro-[1,2,4]triazolo[1,5-a]pyrimidin-6-yl)piperazin-1-yl)-2-oxoethyl) isothiazole-5-carboxamide], for which the IC50 in assay [1] and in assay [2] was less than 100 nM throughout.
On to `CCc1c(N2CCN(C(=O)CNC(=O)c3ccno3)CC2)c(=O)n2nc(C3=CCOCC3)nc2n1CC(=O)Nc1ccc(C(F)(F)F)cc1Cl` [Example 370, N-(2-(4-(4-(2-((2-Chloro-4-(trifluoromethyl)phenyl)amino)-2-oxoethyl)-2-(3,6-dihydro-2H-pyran-4-yl)-5-ethyl-7-oxo-4,7-dihydro-[1,2,4]triazolo[1,5-a]pyrimidin-6-yl)piperazin-1-yl)-2-oxoethyl) isoxazole-5-carboxamide], for which the IC50 in assay [1] and in assay [2] was less than 100 nM each time.
`CCc1c(N2CCN(C(=O)CNC(=O)c3ccon3)CC2)c(=O)n2nc(C3=CCOCC3)nc2n1CC(=O)Nc1ccc(C(F)(F)F)cc1Cl` [Example 371, N-(2-(4-(4-(2-((2-Chloro-4-(trifluoromethyl)phenyl)amino)-2-oxoethyl)-2-(3,6-dihydro-2H-pyran-4-yl)-5-ethyl-7-oxo-4,7-dihydro-[1,2,4]triazolo[1,5-a]pyrimidin-6-yl)piperazin-1-yl)-2-oxoethyl) isoxazole-3-carboxamide]: the IC50 in assay [1] and in assay [2] was less than 100 nM throughout.
As for `CCc1c(N2CCN(C(=O)CNC(=O)c3cc(N)ccc3F)CC2)c(=O)n2nc(C3=CCOCC3)nc2n1CC(=O)Nc1ccc(C(F)(F)F)cc1Cl` [Example 372, 5-Amino-N-(2-(4-(4-(2-((2-chloro-4-(trifluoromethyl)phenyl)amino)-2-oxoethyl)-2-(3,6-dihydro-2H-pyran-4-yl)-5-ethyl-7-oxo-4,7-dihydro-[1,2,4]triazolo[1,5-a]pyrimidin-6-yl)piperazin-1-yl)-2-oxoethyl)-2-fluorobenzamide], the IC50 in assay [1] and in assay [2] was less than 100 nM in each case.
For `CCc1c(N2CCN(C(=O)CNC(=O)c3cc(N)c(F)cc3F)CC2)c(=O)n2nc(C3=CCOCC3)nc2n1CC(=O)Nc1ccc(C(F)(F)F)cc1Cl` [Example 373, 5-Amino-N-(2-(4-(4-(2-((2-chloro-4-(trifluoromethyl)phenyl)amino)-2-oxoethyl)-2-(3,6-dihydro-2H-pyran-4-yl)-5-ethyl-7-oxo-4,7-dihydro-[1,2,4]triazolo[1,5-a]pyrimidin-6-yl)piperazin-1-yl)-2-oxoethyl)-2,4-difluorobenzamide], the values for the IC50 in assay [1] and in assay [2] were 100 to 1000 nM and less than 100 nM, respectively.
In the case of `CCNc1ccc(F)c(C(=O)NCC(=O)N2CCN(c3c(CC)n(CC(=O)Nc4ccc(C(F)(F)F)cc4Cl)c4nc(C5=CCOCC5)nn4c3=O)CC2)c1` [Example 374, N-(2-(4-(4-(2-((2-Chloro-4-(trifluoromethyl)phenyl)amino)-2-oxoethyl)-2-(3,6-dihydro-2H-pyran-4-yl)-5-ethyl-7-oxo-4,7-dihydro-[1,2,4]triazolo[1,5-a]pyrimidin-6-yl)piperazin-1-yl)-2-oxoethyl)-5-(ethylamino)-2-fluorobenzamide], the IC50 in assay [1] and in assay [2] was less than 100 nM in each case.
Take `CCc1c(N2CCN(C(=O)CNC(=O)c3ccc(F)s3)CC2)c(=O)n2nc(C3=CCOCC3)nc2n1CC(=O)Nc1ccc(C(F)(F)F)cc1Cl` [Example 375, N-(2-(4-(4-(2-((2-Chloro-4-(trifluoromethyl)phenyl)amino)-2-oxoethyl)-2-(3,6-dihydro-2H-pyran-4-yl)-5-ethyl-7-oxo-4,7-dihydro-[1,2,4]triazolo[1,5-a]pyrimidin-6-yl)piperazin-1-yl)-2-oxoethyl)-5-fluorothiophene-2-carboxamide]: the IC50 in assay [1] and in assay [2] was less than 100 nM each time.
Regarding `CCc1c(N2CCN(C(=O)CNC(=O)c3ccno3)CC2)c(=O)n2nc(N3CCOCC3)nc2n1CC(=O)Nc1ccc(C(F)(F)F)cc1Cl` [Example 376, N-(2-(4-(4-(2-((2-Chloro-4-(trifluoromethyl)phenyl)amino)-2-oxoethyl)-5-ethyl-2-morpholino-7-oxo-4,7-dihydro-[1,2,4]triazolo[1,5-a]pyrimidin-6-yl)piperazin-1-yl)-2-oxoethyl) isoxazole-5-carboxamide], the IC50 in assay [1] and in assay [2] was less than 100 nM each time.
In the case of `CCc1c(N2CCN(C(=O)CNC(=O)c3ncnc(C)c3O)CC2)c(=O)n2nc(N3CCOCC3)nc2n1CC(=O)Nc1ccc(C(F)(F)F)cc1Cl` [Example 377, N-(2-(4-(4-(2-((2-Chloro-4-(trifluoromethyl)phenyl)amino)-2-oxoethyl)-5-ethyl-2-morpholino-7-oxo-4,7-dihydro-[1,2,4]triazolo[1,5-a]pyrimidin-6-yl)piperazin-1-yl)-2-oxoethyl)-5-hydroxy-6-methylpyrimidine-4-carboxamide], the IC50 in assay [1] and in assay [2] was less than 100 nM in each case.
As for `CCc1c(N2CCN(C(=O)CNC(=O)c3cc(OC)ccc3F)CC2)c(=O)n2nc(C3=CCOCC3)nc2n1CC(=O)Nc1ccc(C(F)(F)F)cc1Cl` [Example 378, N-(2-(4-(4-(2-((2-Chloro-4-(trifluoromethyl)phenyl)amino)-2-oxoethyl)-2-(3,6-dihydro-2H-pyran-4-yl)-5-ethyl-7-oxo-4,7-dihydro-[1,2,4]triazolo[1,5-a]pyrimidin-6-yl)piperazin-1-yl)-2-oxoethyl)-2-fluoro-5-methoxybenzamide], the IC50 in assay [1] and in assay [2] was less than 100 nM each time.
With `CCc1c(N2CCN(C(=O)CNC(=O)c3ccc(OC)cc3F)CC2)c(=O)n2nc(C3=CCOCC3)nc2n1CC(=O)Nc1ccc(C(F)(F)F)cc1Cl` [Example 379, N-(2-(4-(4-(2-((2-Chloro-4-(trifluoromethyl)phenyl)amino)-2-oxoethyl)-2-(3,6-dihydro-2H-pyran-4-yl)-5-ethyl-7-oxo-4,7-dihydro-[1,2,4]triazolo[1,5-a]pyrimidin-6-yl)piperazin-1-yl)-2-oxoethyl)-2-fluoro-4-methoxybenzamide], the IC50 in assay [1] and in assay [2] was less than 100 nM in each case.
With `CCc1c(N2CCN(C(=O)CNC(=O)c3ccc(NC)cc3F)CC2)c(=O)n2nc(C3=CCOCC3)nc2n1CC(=O)Nc1ccc(C(F)(F)F)cc1Cl` [Example 380, N-(2-(4-(4-(2-((2-Chloro-4-(trifluoromethyl)phenyl)amino)-2-oxoethyl)-2-(3,6-dihydro-2H-pyran-4-yl)-5-ethyl-7-oxo-4,7-dihydro-[1,2,4]triazolo[1,5-a]pyrimidin-6-yl)piperazin-1-yl)-2-oxoethyl)-2-fluoro-4-(methylamino)benzamide], the IC50 in assay [1] and in assay [2] was 100 to 1000 nM each time.
In the case of `CCc1c(N2CCN(C(=O)CNC(=O)c3ccncc3O)CC2)c(=O)n2nc(C3=CCOCC3)nc2n1CC(=O)Nc1ccc(C(F)(F)F)cc1Cl` [Example 381, N-(2-(4-(4-(2-((2-Chloro-4-(trifluoromethyl)phenyl)amino)-2-oxoethyl)-2-(3,6-dihydro-2H-pyran-4-yl)-5-ethyl-7-oxo-4,7-dihydro-[1,2,4]triazolo[1,5-a]pyrimidin-6-yl)piperazin-1-yl)-2-oxoethyl)-3-hydroxyisonicotinamide], the IC50 in assay [1] and in assay [2] was less than 100 nM each time.
For `CCc1c(N2CCN(C(=O)CNC(=O)c3cc(C#N)ccc3F)CC2)c(=O)n2nc(C3=CCOCC3)nc2n1CC(=O)Nc1ccc(C(F)(F)F)cc1Cl` [Example 382, N-(2-(4-(4-(2-((2-Chloro-4-(trifluoromethyl)phenyl)amino)-2-oxoethyl)-2-(3,6-dihydro-2H-pyran-4-yl)-5-ethyl-7-oxo-4,7-dihydro-[1,2,4]triazolo[1,5-a]pyrimidin-6-yl)piperazin-1-yl)-2-oxoethyl)-5-cyano-2-fluorobenzamide], the concentration for half-maximal inhibition (IC50) in assay [1] and in assay [2] was less than 100 nM each time.
As for `CCc1c(N2CCN(C(=O)CNC(=O)c3cccc4nonc34)CC2)c(=O)n2nc(C3=CCOCC3)nc2n1CC(=O)Nc1ccc(C(F)(F)F)cc1Cl` [Example 383, N-(2-(4-(4-(2-((2-Chloro-4-(trifluoromethyl)phenyl)amino)-2-oxoethyl)-2-(3,6-dihydro-2H-pyran-4-yl)-5-ethyl-7-oxo-4,7-dihydro-[1,2,4]triazolo[1,5-a]pyrimidin-6-yl)piperazin-1-yl)-2-oxoethyl)benzo[c][1,2,5]oxadiazole-4-carboxamide], the IC50 in assay [1] and in assay [2] was less than 100 nM each time.
Turning to `CCc1c(N2CCN(C(=O)CNC(=O)c3cnon3)CC2)c(=O)n2nc(C3=CCOCC3)nc2n1CC(=O)Nc1ccc(C(F)(F)F)cc1Cl` [Example 384, N-(2-(4-(4-(2-((2-Chloro-4-(trifluoromethyl)phenyl)amino)-2-oxoethyl)-2-(3,6-dihydro-2H-pyran-4-yl)-5-ethyl-7-oxo-4,7-dihydro-[1,2,4]triazolo[1,5-a]pyrimidin-6-yl)piperazin-1-yl)-2-oxoethyl)-1,2,5-oxadiazole-3-carboxamide], the IC50 in assay [1] and in assay [2] was less than 100 nM each time.
For `CCc1c(N2CCN(C(=O)CNC(=O)c3ccco3)CC2)c(=O)n2nc(C3=CCOCC3)nc2n1CC(=O)Nc1ccc(C(F)(F)F)cc1Cl` [Example 385, N-(2-(4-(4-(2-((2-Chloro-4-(trifluoromethyl)phenyl)amino)-2-oxoethyl)-2-(3,6-dihydro-2H-pyran-4-yl)-5-ethyl-7-oxo-4,7-dihydro-[1,2,4]triazolo[1,5-a]pyrimidin-6-yl)piperazin-1-yl)-2-oxoethyl)furan-2-carboxamide], the IC50 in assay [1] and in assay [2] was less than 100 nM throughout.
